According to US7309491B2, “Heat shock protein-based vaccines and immunotherapies” (priority 2003, dated 2007):

Legend:
[1] = tested on: CD8+ T cells; assay type: in vivo, B6 mice; conditions: mouse, in vivo
[2] = biological target: recombinant human or murine heat shock protein 70 (hsp70); assay: hsp70 binding inhibition assay (Hill plots) relative to labeled reference hybrid antigen; conditions: read-out: Kd for hsp70 binding, antigenic domains alone
[3] = tested on: T cells of HHD II mice bearing human HLA-A2; conditions: mouse, in vivo
[4] = biological target: recombinant human or murine heat shock protein 70 (hsp70); assay: Scatchard analysis of labeled reference hybrid antigen binding to hsp70; conditions: 39% PBS, 20 mM THAM pH 8, 37 mM NaCl, 5 mM MgCl2, 1 mM ADP

NLLRLTGWFRSIINFEKL
Number of Spots per 300,000 cells: Medium [1]: 0.67 ± 0.58 | Number of Spots per 300,000 cells: SIINFEKL (SEQ ID NO:868) [1]: 12 ± 2 | Number of Spots per 300,000 cells: Unpulsed Splenocytes [1]: 0.67 ± 0.58 | Number of Spots per 400,000 cells: Medium control [1]: 1.0 ± 1.7 spots per 400,000 cells | Number of Spots per 400,000 cells: Unpulsed control [1]: 0.0 ± 0.0 spots per 400,000 cells | Number of spots per 400,000 cells: VSV control [1]: 0.67 ± 0.58 spots per 400,000 cells | Number of spots per 400,000 cells: SIINFEKL (SEQ ID NO:868) ([1]; sc): 31 ± 5.7 spots per 400,000 cells

RGYVYQGL
Kd [2]: 82 µM

NLLRLTGWFFRKDAPIYTNV (SEQ ID NO:910) (Hybrid antigen)
Number of Spots per 300,000 cells, Medium [1]: 0.7 ± 0.4 Spots per 300,000 cells | Number of Spots per 300,000 cells, Response to Class I epitope when Class I and Class II hybrid antigen admixture is administered [1]: 13 ± 3.9 Spots per 300,000 cells | Number of Spots per 300,000 cells, Response to Class I epitope when Class I hybrid antigen administered [1]: 2 ± 1.9 Spots per 300,000 cells | Number of Spots per 300,000 cells, Splenocytes [1]: 0 ± 0 Spots per 300,000 cells

NLLRLTGWFFRKFAPGNYPAL (SEQ ID NO:892) (Hybrid antigen)
Number of Spots per 300,000 cells, FAPGNYPAL (SEQ ID NO:906) [1]: 4.3 ± 3.2 Spots per 300,000 cells | Number of Spots per 300,000 cells, IAYFYPEL (SEQ ID NO:904) [1]: 0.3 ± 0.6 Spots per 300,000 cells | Number of Spots per 300,000 cells, Medium [1]: 0 ± 0 Spots per 300,000 cells

NLLRLTGWFFRKIMDQVPFSV
Number of Spots per 400,000 cells: IMD [3]: 27 ± 5.1 spots per 400,000 cells | Number of Spots per 400,000 cells: Medium control [3]: 0.0 ± 0.0 spots per 400,000 cells | Number of Spots per 400,000 cells: Unpulsed control [3]: 0.0 ± 0.0 spots per 400,000 cells | Number of Spots per 400,000 cells: YMD control [3]: 2.0 ± 2.0 spots per 400,000 cells

ALFDIESKVGSGHWDFAWPW
Kd ([4]; fluoresceinated label): 10.8 µM | Kd ([4]; tritiated label): 22.6 µM

NLLRLTGWFFRKIAYFYPELFFRKFAPGNYPAL
Number of Spots per 300,000 cells: FAPGNYPAL (SEQ ID NO:891) [1]: 136 ± 6.6 | Number of Spots per 300,000 cells: IAYFYPEL (SEQ ID NO:904) [1]: 128 ± 9.2 | Number of Spots per 300,000 cells: RGYVYQGL (SEQ ID NO:879) [1]: 1.7 ± 0.8 | Number of Spots per 300,000 cells: SIINFEKL (SEQ ID NO:868) [1]: 1.7 ± 1.1
